The assay concerns the target T1, WIZ protein (HiBit-WIZ fusion protein) (Homo sapiens, UniProt O95785+Q96SW2).
T1 construct: expressed in transfected cells
The assay is described as follows: Quantification of WIZ protein levels in HiBit tag fusion protein assay (WIZ HiBit assay in 293T cells). The assay is classed as cell-based. The settings on record: for Dmax at 25 µM / remaining activity at 25 µM: HEK-293T, 293T cells; for Dmax at 25 µM: 100 − Amax, read-out: % degradation of WIZ (100 − Amax); for remaining activity at 25 µM: DMSO-normalized, curve-fitted percentage of WIZ-HiBit remaining at 25 uM, read-out: WIZ Amax; for DC50: WIZ HiBit assay in 293T cells, 10-point, 5-fold dose response, highest concentration 25 μM, about 18 hours, read-out: WIZ AC50. The essentials:
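Luminescence after LgBit complementation quantified remaining HiBit-WIZ in lysates of single-copy stable 293T lines. Cells dosed ~18 h at 37 °C with 10-point, 5-fold dilutions (highest 25 μM); DMSO set to 100%, fitted curve gave % remaining at 25 μM (Amax).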
In general terms: HiBiT is a short tag that completes a luciferase, so light tracks the accessible tagged protein.

T1 sequence (O95785 whole entry, the tested form may be a part): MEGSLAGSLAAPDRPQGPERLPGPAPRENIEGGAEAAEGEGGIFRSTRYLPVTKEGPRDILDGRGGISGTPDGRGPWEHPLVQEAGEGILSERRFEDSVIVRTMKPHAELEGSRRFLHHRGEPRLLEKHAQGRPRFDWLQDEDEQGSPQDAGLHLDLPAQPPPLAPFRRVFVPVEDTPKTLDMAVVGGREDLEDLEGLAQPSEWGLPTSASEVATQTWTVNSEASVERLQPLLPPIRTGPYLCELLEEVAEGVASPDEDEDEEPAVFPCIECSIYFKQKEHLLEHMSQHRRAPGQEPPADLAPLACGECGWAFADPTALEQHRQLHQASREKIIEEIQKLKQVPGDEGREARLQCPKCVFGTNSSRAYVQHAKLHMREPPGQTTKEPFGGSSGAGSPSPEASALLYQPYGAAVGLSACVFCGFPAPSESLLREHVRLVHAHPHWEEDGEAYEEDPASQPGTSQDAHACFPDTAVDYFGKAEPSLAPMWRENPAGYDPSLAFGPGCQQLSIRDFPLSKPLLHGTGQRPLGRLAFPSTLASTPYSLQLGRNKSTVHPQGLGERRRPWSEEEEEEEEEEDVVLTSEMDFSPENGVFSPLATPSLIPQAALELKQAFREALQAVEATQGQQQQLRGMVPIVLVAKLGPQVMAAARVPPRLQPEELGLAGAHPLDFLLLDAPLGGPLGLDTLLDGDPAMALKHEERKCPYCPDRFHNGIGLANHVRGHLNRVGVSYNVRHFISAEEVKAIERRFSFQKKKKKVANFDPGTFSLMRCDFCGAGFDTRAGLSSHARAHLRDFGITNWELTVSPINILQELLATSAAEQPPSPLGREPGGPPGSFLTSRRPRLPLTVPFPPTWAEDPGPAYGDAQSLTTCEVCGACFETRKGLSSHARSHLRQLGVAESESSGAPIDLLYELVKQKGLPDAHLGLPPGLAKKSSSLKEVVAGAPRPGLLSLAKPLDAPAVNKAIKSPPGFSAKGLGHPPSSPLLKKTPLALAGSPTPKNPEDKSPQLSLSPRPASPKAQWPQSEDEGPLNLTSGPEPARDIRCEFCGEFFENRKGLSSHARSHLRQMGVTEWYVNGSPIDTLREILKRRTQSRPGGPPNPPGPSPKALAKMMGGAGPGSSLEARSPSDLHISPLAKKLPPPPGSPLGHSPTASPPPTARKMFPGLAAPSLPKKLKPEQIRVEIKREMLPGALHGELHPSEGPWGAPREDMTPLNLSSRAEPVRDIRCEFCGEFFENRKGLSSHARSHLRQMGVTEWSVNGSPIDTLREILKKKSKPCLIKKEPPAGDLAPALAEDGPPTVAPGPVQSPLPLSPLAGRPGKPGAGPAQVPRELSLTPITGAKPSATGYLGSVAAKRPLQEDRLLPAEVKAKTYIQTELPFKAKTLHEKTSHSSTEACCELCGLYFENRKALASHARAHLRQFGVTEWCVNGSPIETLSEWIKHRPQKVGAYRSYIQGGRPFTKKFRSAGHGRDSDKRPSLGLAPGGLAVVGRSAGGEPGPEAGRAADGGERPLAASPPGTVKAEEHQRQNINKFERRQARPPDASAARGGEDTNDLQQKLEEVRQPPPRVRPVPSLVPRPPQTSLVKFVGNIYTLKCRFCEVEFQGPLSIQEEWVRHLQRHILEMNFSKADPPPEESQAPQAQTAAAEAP
T1 sequence (Q96SW2 whole entry, the tested form may be a part): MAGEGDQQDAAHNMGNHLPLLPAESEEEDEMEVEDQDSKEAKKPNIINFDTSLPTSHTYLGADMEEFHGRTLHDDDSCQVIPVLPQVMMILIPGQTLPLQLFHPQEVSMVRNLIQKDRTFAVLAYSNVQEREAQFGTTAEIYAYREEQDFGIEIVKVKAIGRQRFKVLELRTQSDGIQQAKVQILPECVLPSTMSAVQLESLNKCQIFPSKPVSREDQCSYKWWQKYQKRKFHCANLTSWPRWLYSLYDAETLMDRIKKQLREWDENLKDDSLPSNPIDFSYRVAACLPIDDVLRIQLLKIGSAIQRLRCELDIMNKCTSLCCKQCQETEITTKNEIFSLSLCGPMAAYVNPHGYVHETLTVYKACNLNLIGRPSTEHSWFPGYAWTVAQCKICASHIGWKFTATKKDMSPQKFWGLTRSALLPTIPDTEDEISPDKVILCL
T1 sequence (Q16531 whole entry partner, the tested form may be a part): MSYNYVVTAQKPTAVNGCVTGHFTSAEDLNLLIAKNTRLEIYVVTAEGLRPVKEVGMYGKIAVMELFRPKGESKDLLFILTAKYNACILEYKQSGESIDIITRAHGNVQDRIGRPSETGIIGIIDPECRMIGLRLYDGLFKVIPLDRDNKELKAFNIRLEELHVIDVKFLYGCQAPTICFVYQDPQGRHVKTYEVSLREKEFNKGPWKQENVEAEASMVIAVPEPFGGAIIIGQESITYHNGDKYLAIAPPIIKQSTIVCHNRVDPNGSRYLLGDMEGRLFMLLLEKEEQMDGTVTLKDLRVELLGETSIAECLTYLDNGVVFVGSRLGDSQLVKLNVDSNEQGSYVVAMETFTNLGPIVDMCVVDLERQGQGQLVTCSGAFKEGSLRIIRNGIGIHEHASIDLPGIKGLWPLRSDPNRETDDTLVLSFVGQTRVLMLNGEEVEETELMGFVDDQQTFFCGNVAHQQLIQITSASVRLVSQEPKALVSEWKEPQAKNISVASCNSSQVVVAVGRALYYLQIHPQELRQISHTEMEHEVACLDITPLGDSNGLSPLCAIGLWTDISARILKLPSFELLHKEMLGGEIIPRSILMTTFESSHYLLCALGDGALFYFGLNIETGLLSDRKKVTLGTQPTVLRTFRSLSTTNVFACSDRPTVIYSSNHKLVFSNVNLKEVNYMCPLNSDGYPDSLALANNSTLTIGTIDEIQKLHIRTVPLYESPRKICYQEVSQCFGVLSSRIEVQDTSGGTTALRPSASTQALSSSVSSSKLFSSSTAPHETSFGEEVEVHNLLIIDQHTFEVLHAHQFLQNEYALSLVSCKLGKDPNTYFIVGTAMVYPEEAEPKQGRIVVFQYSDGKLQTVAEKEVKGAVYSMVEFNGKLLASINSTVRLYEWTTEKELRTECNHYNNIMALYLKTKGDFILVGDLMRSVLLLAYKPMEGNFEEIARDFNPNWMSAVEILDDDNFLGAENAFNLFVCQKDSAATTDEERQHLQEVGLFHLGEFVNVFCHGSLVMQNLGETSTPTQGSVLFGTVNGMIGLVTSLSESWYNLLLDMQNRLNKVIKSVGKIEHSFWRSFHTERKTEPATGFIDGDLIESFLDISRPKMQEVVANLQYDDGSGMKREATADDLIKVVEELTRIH

In the case of `O=C1CCN(c2cnn3ccc(CC4(F)CCN(CC5CCCCC5)CC4)cc23)C(=O)N1` [Example 123, 1-(5-((1-(cyclohexylmethyl)-4-fluoropiperidin-4-yl)methyl)pyrazolo[1,5-a]pyridin-3-yl)dihydropyrimidine-2,4(1H,3H)-dione], the Dmax at 25 µM came out at 68%, the remaining activity at 25 µM is 32% and the DC50 is 95 nM.

With `O=C1CCN(c2cnn3ccc(CC4CCCNCC4)cc23)C(=O)N1` (stereo not drawn) [Example 269, 1-(5-(azepan-4-ylmethyl)pyrazolo[1,5-a]pyridin-3-yl)dihydropyrimidine-2,4(1H,3H)-dione], the Dmax at 25 µM stood at 49%, the remaining activity at 25 µM amounted to 51% and the DC50 worked out at 1020 nM.

With `CC1(CN2CCC(Cc3ccn4ncc(N5CCC(=O)NC5=O)c4c3)CC2)COC1` [Example 118, 1-(5-((1-((3-methyloxetan-3-yl)methyl)piperidin-4-yl)methyl)pyrazolo[1,5-a]pyridin-3-yl)dihydropyrimidine-2,4(1H,3H)-dione], the Dmax at 25 µM worked out at 64%, the remaining activity at 25 µM amounted to 36% and the DC50 was 166 nM.

Regarding `O=C1CCN(c2cnn3ccc(CC4CCN(C(=O)CCC5CCCCC5)CC4)cc23)C(=O)N1` [Example 103], the Dmax at 25 µM turned out to be 28%, the remaining activity at 25 µM came to 72% and the DC50 turned out to be 82 nM.

As to `C[C@H]1CN(Cc2ccn3ncc(N4CCC(=O)NC4=O)c3c2)CCN1C(=O)C1CCCCC1` [Example 342, (S)-1-(5-((4-(cyclohexanecarbonyl)-3-methylpiperazin-1-yl)methyl)pyrazolo[1,5-a]pyridin-3-yl)dihydropyrimidine-2,4(1H,3H)-dione], the Dmax at 25 µM came out at 37%, the remaining activity at 25 µM worked out at 63% and the DC50 amounted to 916 nM.

For `O=C1CCN(c2cnn3ccc(CC4CCN(S(=O)(=O)C5CCOCC5)CC4)cc23)C(=O)N1` [Example 83], the Dmax at 25 µM is 89%, the remaining activity at 25 µM is 11% and the DC50 came to 76 nM.

Regarding `CC(C)COC(=O)N1CCC(Cc2ccn3ncc(N4CCC(=O)NC4=O)c3c2)CC1` [Example 95], the Dmax at 25 µM was 43%, the remaining activity at 25 µM is 57% and the DC50 was over 25000 nM.

As for `CC(C)S(=O)(=O)N1CCN(Cc2ccn3ncc(N4CCC(=O)NC4=O)c3c2)CC1` [Example 185, 1-(5-((4-(isopropylsulfonyl)piperazin-1-yl)methyl)pyrazolo[1,5-a]pyridin-3-yl)dihydropyrimidine-2,4(1H,3H)-dione], the Dmax at 25 µM worked out at 47%, the remaining activity at 25 µM worked out at 53% and the DC50 worked out at 582 nM.

Take `C[C@@H]1CN(Cc2ccn3ncc(N4CCC(=O)NC4=O)c3c2)CCN1CC1CCCCC1` [Example 214]: the Dmax at 25 µM was found to be 65%, the remaining activity at 25 µM was 35% and the DC50 stood at 151 nM.

Turning to `C=C(C)CN1CCC(Cc2ccn3ncc(N4CCC(=O)NC4=O)c3c2)CC1` [Example 39a, 1-(5-((1-(2-methylallyl)piperidin-4-yl)methyl)pyrazolo[1,5-a]pyridin-3-yl)dihydropyrimidine-2,4(1H,3H)-dione], the Dmax at 25 µM is 68%, the remaining activity at 25 µM was determined as 32% and the DC50 stood at 87 nM.

Regarding `C[C@H]1C[C@H](Cc2ccn3ncc(N4CCC(=O)NC4=O)c3c2)CCN1C[C@H]1CC[C@H](C(F)(F)F)CC1` [Example 305, 1-(5-(((2S,4R)-2-methyl-1-(((1r,4S)-4-(trifluoromethyl)cyclohexyl)methyl)piperidin-4-yl)methyl)pyrazolo[1,5-a]pyridin-3-yl)dihydropyrimidine-2,4(1H,3H)-dione], the Dmax at 25 µM stood at 85%, the remaining activity at 25 µM came to 15% and the DC50 was 2 nM.

For `O=C1CCN(c2cnn3ccc(CN4CCN(Cc5cscn5)CC4)cc23)C(=O)N1` [Example 197, 1-(5-((4-(thiazol-4-ylmethyl)piperazin-1-yl)methyl)pyrazolo[1,5-a]pyridin-3-yl)dihydropyrimidine-2,4(1H,3H)-dione], the Dmax at 25 µM worked out at 40%, the remaining activity at 25 µM turned out to be 60% and the DC50 was determined as 1140 nM.

On to `C[C@H]1C[C@H](Cc2ccn3ncc(N4CCC(=O)NC4=O)c3c2)CCN1C[C@H]1C[C@@H](F)[C@@H](F)C1` [Example 304, 1-(5-(((2S,4R)-1-(((1r,3R,4S)-3,4-difluorocyclopentyl)methyl)-2-methylpiperidin-4-yl)methyl)pyrazolo[1,5-a]pyridin-3-yl)dihydropyrimidine-2,4(1H,3H)-dione], for which the Dmax at 25 µM was 87%, the remaining activity at 25 µM came to 13% and the DC50 turned out to be 2 nM.

`Cc1cn(-c2cnn3ccc(C[C@@H]4CCN(CC(C)C)[C@@H](C)C4)cc23)c(=O)[nH]c1=O` [Example 347, 1-(5-(((2S,4R)-1-isobutyl-2-methylpiperidin-4-yl)methyl)pyrazolo[1,5-a]pyridin-3-yl)-5-methylpyrimidine-2,4(1H,3H)-dione]: the Dmax at 25 µM came to 89%, the remaining activity at 25 µM was 11% and the DC50 was found to be 378 nM.

`C[C@H]1C[C@H](Cc2ccn3ncc(N4CCC(=O)NC4=O)c3c2)CCN1CCC(F)(F)F` [Example 276, 1-(5-(((2S,4R)-2-methyl-1-(3,3,3-trifluoropropyl)piperidin-4-yl)methyl)pyrazolo[1,5-a]pyridin-3-yl)dihydropyrimidine-2,4(1H,3H)-dione]: the Dmax at 25 µM was 84%, the remaining activity at 25 µM was determined as 15% and the DC50 is 9 nM.

Regarding `C[C@@H]1CN(CC2CCCCC2)CCN1Cc1ccn2ncc(N3CCC(=O)NC3=O)c2c1` [Example 218], the Dmax at 25 µM was found to be 71%, the remaining activity at 25 µM was 29% and the DC50 is 68 nM.

As to `O=C1CCN(c2cnn3ccc(CC4CCN(Cc5ccc(OC(F)(F)F)cc5)CC4)cc23)C(=O)N1` [Example 56, 1-(5-((1-(4-(trifluoromethoxy)benzyl)piperidin-4-yl)methyl)pyrazolo[1,5-a]pyridin-3-yl)dihydropyrimidine-2,4(1H,3H)-dione], the Dmax at 25 µM was determined as 63%, the remaining activity at 25 µM was determined as 37% and the DC50 is 204 nM.

`C[C@H]1C[C@H](Cc2ccn3ncc(N4CCC(=O)NC4=O)c3c2)CCN1C1CCC1` [Example 280, 1-(5-(((2S,4R)-1-cyclobutyl-2-methylpiperidin-4-yl)methyl)pyrazolo[1,5-a]pyridin-3-yl)dihydropyrimidine-2,4(1H,3H)-dione]: the Dmax at 25 µM was 88%, the remaining activity at 25 µM came to 12% and the DC50 turned out to be 8 nM.

Take `C[C@H]1CN(Cc2ccn3ncc(N4CCC(=O)NC4=O)c3c2)CCN1CC1CCC(C)(C)CC1` [Example 200, (S)-1-(5-((4-((4,4-dimethylcyclohexyl)methyl)-3-methylpiperazin-1-yl)methyl)pyrazolo[1,5-a]pyridin-3-yl)dihydropyrimidine-2,4(1H,3H)-dione]: the Dmax at 25 µM is 90%, the remaining activity at 25 µM was 10% and the DC50 is 8 nM.

Take `O=C1CCN(c2cnn3ccc(CC4CCN(Cc5cc(F)cc(C(F)(F)F)c5)CC4)cc23)C(=O)N1` [Example 51, 1-(5-((1-(3-fluoro-5-(trifluoromethyl)benzyl)piperidin-4-yl)methyl)pyrazolo[1,5-a]pyridin-3-yl)dihydropyrimidine-2,4(1H,3H)-dione]: the Dmax at 25 µM turned out to be 66%, the remaining activity at 25 µM came to 34% and the DC50 was 39 nM.

In the case of `CC(C)C(C)N1CCN(Cc2ccn3ncc(N4CCC(=O)NC4=O)c3c2)CC1` (stereo not drawn) [Example 240, 1-(5-((4-(3-methylbutan-2-yl)piperazin-1-yl)methyl)pyrazolo[1,5-a]pyridin-3-yl)dihydropyrimidine-2,4(1H,3H)-dione], the Dmax at 25 µM was 80%, the remaining activity at 25 µM stood at 20% and the DC50 was determined as 25 nM.

Take `C[C@H]1CN(Cc2ccn3ncc(N4CCC(=O)NC4=O)c3c2)CCN1C1CC2(COC2)C1` [Example 332]: the Dmax at 25 µM was 49%, the remaining activity at 25 µM came to 51% and the DC50 amounted to 22000 nM.

In the case of `COCCS(=O)(=O)N1CCC(Cc2ccn3ncc(N4CCC(=O)NC4=O)c3c2)CC1` [Example 92], the Dmax at 25 µM was 69%, the remaining activity at 25 µM was 31% and the DC50 amounted to 131 nM.

For the compound `CC(C)CN1CCN(Cc2ccn3ncc(-n4cc(C5CC5)c(=O)[nH]c4=O)c3c2)C[C@@H]1C` [Example 361, (S)-5-cyclopropyl-1-(5-((4-isobutyl-3-methylpiperazin-1-yl)methyl)pyrazolo[1,5-a]pyridin-3-yl)pyrimidine-2,4(1H,3H)-dione], the Dmax at 25 µM is 0%, the remaining activity at 25 µM came to 100% and the DC50 is over 25000 nM.

On to `O=C1CCN(c2cnn3ccc(CN4CCN(CC5CCC5)CC4)cc23)C(=O)N1` [Example 188, 1-(5-((4-(cyclobutylmethyl)piperazin-1-yl)methyl)pyrazolo[1,5-a]pyridin-3-yl)dihydropyrimidine-2,4(1H,3H)-dione], for which the Dmax at 25 µM was 77%, the remaining activity at 25 µM is 23% and the DC50 stood at 71 nM.

Consider `C[C@H]1CN(Cc2ccn3ncc(-n4ccc(=O)[nH]c4=O)c3c2)CCN1CC1CCC(F)(F)CC1` [Example 363, (S)-1-(5-((4-((4,4-difluorocyclohexyl)methyl)-3-methylpiperazin-1-yl)methyl)pyrazolo[1,5-a]pyridin-3-yl)pyrimidine-2,4(1H,3H)-dione], for which the Dmax at 25 µM was determined as 85%, the remaining activity at 25 µM came out at 15% and the DC50 amounted to 109 nM.

These data come from patent US11787785B2 (NOVARTIS AG, priority 2021, dated 2023).
